# Species on record: Rattus norvegicus
# Assay: Open TG-GATES - Regimen: Single
# Type: toxicity, organism-based, Sprague-Dawley
# Parameters: regimen Single, gender Male, age 6 weeks
# Conditions: in vivo, po, 0 mg/kg, route gavage, dose level Control; for APTT / Bas / Eos / Fbg / Hb / Ht / Lym / MCH / MCHC / MCV / Mono / Neu / PT / Plat / RBC / Ret / WBC: tissue Blood; for KIDNEY_L / KIDNEY_R / KIDNEY_TOTAL: tissue Kidney; for LIVER: tissue Liver; for A/G / ALP / ALT / AST / BUN / CRE / Ca / Cl / DBIL / GLC / IP / K / LDH / Na / PL / RALB / TBIL / TC / TG / TP / gamma-GTP: tissue Plasma
smiles,measurement,setting,value
CN(C)CCC=C1c2ccccc2CCc2ccccc21 [AMITRIPTYLINE],TERMINAL_BW,3 h,194 g
same,APTT,3 h,16.6 s
same,Bas,3 h,0%
same,Eos,3 h,0.8%
same,Fbg,3 h,235.6 mg/dL
same,Hb,3 h,12.8 g/dL
same,Ht,3 h,39.8%
same,Lym,3 h,77.6%
same,MCH,3 h,20.9 pg
same,MCHC,3 h,32.3%
same,MCV,3 h,64.6 fL
same,Mono,3 h,3.4%
same,Neu,3 h,17.2%
same,PT,3 h,16.2 s
same,Plat,3 h,103.9 x10_4/uL
same,RBC,3 h,616.6 x10_4/ul
same,Ret,3 h,9.3%
same,WBC,3 h,90.6 x10_2/uL
same,KIDNEY_L,3 h,0.9 g
same,KIDNEY_R,3 h,0.9 g
same,KIDNEY_TOTAL,3 h,1.7 g
same,LIVER,3 h,8.2 g
same,A/G,3 h,0.8
same,ALP,3 h,1452 IU/L
same,ALT,3 h,48.2 IU/L
same,AST,3 h,80.8 IU/L
same,BUN,3 h,8.8 mg/dL
same,CRE,3 h,0.2 mg/dL
same,Ca,3 h,10.7 mg/dL
same,Cl,3 h,106 meq/L
same,DBIL,3 h,0.01 mg/dL
same,GLC,3 h,183.6 mg/dL
same,IP,3 h,9.2 mg/dL
same,K,3 h,4.1 meq/L
same,LDH,3 h,66.2 IU/L
same,Na,3 h,143 meq/L
same,PL,3 h,124.4 mg/dL
same,RALB,3 h,2.4 g/dL
same,TBIL,3 h,0.062 mg/dL
same,TC,3 h,67.6 mg/dL
same,TG,3 h,44.4 mg/dL
same,TP,3 h,5.3 g/dL
same,gamma-GTP,3 h,1 IU/L
same,TERMINAL_BW,6 h,193.8 g
same,APTT,6 h,17 s
same,Bas,6 h,0%
same,Eos,6 h,0.8%
same,Fbg,6 h,256.2 mg/dL
same,Hb,6 h,12.7 g/dL
same,Ht,6 h,38.9%
same,Lym,6 h,72.6%
same,MCH,6 h,20.6 pg
same,MCHC,6 h,32.6%
same,MCV,6 h,63.3 fL
same,Mono,6 h,2.4%
same,Neu,6 h,23.2%
same,PT,6 h,15.8 s
same,Plat,6 h,119.8 x10_4/uL
same,RBC,6 h,615.8 x10_4/ul
same,Ret,6 h,8.9%
same,WBC,6 h,66 x10_2/uL
same,KIDNEY_L,6 h,0.9 g
same,KIDNEY_R,6 h,0.8 g
same,KIDNEY_TOTAL,6 h,1.7 g
same,LIVER,6 h,8.2 g
same,A/G,6 h,0.9
same,ALP,6 h,1334.2 IU/L
same,ALT,6 h,44.6 IU/L
same,AST,6 h,74.4 IU/L
same,BUN,6 h,8.6 mg/dL
same,CRE,6 h,0.1 mg/dL
same,Ca,6 h,10.7 mg/dL
same,Cl,6 h,105.8 meq/L
same,DBIL,6 h,0.008 mg/dL
same,GLC,6 h,173.6 mg/dL
same,IP,6 h,9.8 mg/dL
same,K,6 h,4.2 meq/L
same,LDH,6 h,62 IU/L
same,Na,6 h,142.6 meq/L
same,PL,6 h,142.6 mg/dL
same,RALB,6 h,2.5 g/dL
same,TBIL,6 h,0.06 mg/dL
same,TC,6 h,78.4 mg/dL
same,TG,6 h,67 mg/dL
same,TP,6 h,5.4 g/dL
same,gamma-GTP,6 h,1 IU/L
same,TERMINAL_BW,9 h,191.9 g
same,APTT,9 h,16 s
same,Bas,9 h,0%
same,Eos,9 h,1%
same,Fbg,9 h,295.6 mg/dL
same,Hb,9 h,12.8 g/dL
same,Ht,9 h,39.1%
same,Lym,9 h,77.6%
same,MCH,9 h,20.9 pg
same,MCHC,9 h,32.8%
same,MCV,9 h,63.9 fL
same,Mono,9 h,2.4%
same,Neu,9 h,18.6%
same,PT,9 h,15.2 s
same,Plat,9 h,119.1 x10_4/uL
same,RBC,9 h,611.8 x10_4/ul
same,Ret,9 h,8.5%
same,WBC,9 h,71.6 x10_2/uL
same,KIDNEY_L,9 h,0.9 g
same,KIDNEY_R,9 h,0.9 g
same,KIDNEY_TOTAL,9 h,1.7 g
same,LIVER,9 h,7.8 g
same,A/G,9 h,0.8
same,ALP,9 h,1549.8 IU/L
same,ALT,9 h,40.8 IU/L
same,AST,9 h,71.4 IU/L
same,BUN,9 h,8.8 mg/dL
same,CRE,9 h,0.2 mg/dL
same,Ca,9 h,10.7 mg/dL
same,Cl,9 h,106.6 meq/L
same,DBIL,9 h,0.01 mg/dL
same,GLC,9 h,174.8 mg/dL
same,IP,9 h,10 mg/dL
same,K,9 h,4 meq/L
same,LDH,9 h,60.4 IU/L
same,Na,9 h,142.6 meq/L
same,PL,9 h,140.4 mg/dL
same,RALB,9 h,2.5 g/dL
same,TBIL,9 h,0.06 mg/dL
same,TC,9 h,79.4 mg/dL
same,TG,9 h,44 mg/dL
same,TP,9 h,5.4 g/dL
same,gamma-GTP,9 h,1 IU/L
same,TERMINAL_BW,24 h,208.1 g
same,APTT,24 h,16.3 s
same,Bas,24 h,0.4%
same,Eos,24 h,1%
same,Fbg,24 h,266 mg/dL
same,Hb,24 h,12.5 g/dL
same,Ht,24 h,38.5%
same,Lym,24 h,77.8%
same,MCH,24 h,21.2 pg
same,MCHC,24 h,32.4%
same,MCV,24 h,65.5 fL
same,Mono,24 h,3.2%
same,Neu,24 h,17%
same,PT,24 h,16.3 s
same,Plat,24 h,110 x10_4/uL
same,RBC,24 h,589.4 x10_4/ul
same,Ret,24 h,9.5%
same,WBC,24 h,101.9 x10_2/uL
same,KIDNEY_L,24 h,0.9 g
same,KIDNEY_R,24 h,0.9 g
same,KIDNEY_TOTAL,24 h,1.8 g
same,LIVER,24 h,9.6 g
same,A/G,24 h,0.8
same,ALP,24 h,1573.8 IU/L
same,ALT,24 h,48.2 IU/L
same,AST,24 h,77.4 IU/L
same,BUN,24 h,15.4 mg/dL
same,CRE,24 h,0.2 mg/dL
same,Ca,24 h,11.1 mg/dL
same,Cl,24 h,105 meq/L
same,DBIL,24 h,0.016 mg/dL
same,GLC,24 h,186.4 mg/dL
same,IP,24 h,8.2 mg/dL
same,K,24 h,4 meq/L
same,LDH,24 h,90.2 IU/L
same,Na,24 h,143.2 meq/L
same,PL,24 h,153.8 mg/dL
same,RALB,24 h,2.6 g/dL
same,TBIL,24 h,0.054 mg/dL
same,TC,24 h,79.4 mg/dL
same,TG,24 h,97.4 mg/dL
same,TP,24 h,5.6 g/dL
same,gamma-GTP,24 h,0.6 IU/L

# From ChEMBL document CHEMBL3885861, “Open TG-GATES”
